Patent publication US7138361B2, “Herbicidal heterocycles” (E. I. du Pont de Nemours and Company, priority 2000, dated 2006)

How the values were obtained:
Format in all cases: in vivo
[1] = system: crabgrass (Digitaria sanguinalis); assay: Test B preemergence; settings: scale 0 to 100, 0 no effect, 100 complete control
Outline: (§1)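 Visual injury scores, 0 = no effect to 100 = complete control, assigned against controls after 13 to 15 days in the greenhouse. Compounds formulated in non-phytotoxic solvent plus surfactant and applied to soil after planting (pre) or onto foliage of 1- to 4-leaf plants (post).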

[2] = system: pigweed (Amaranthus retroflexus); assay: Test B preemergence; settings: Preemergence, Rate 500 g/ha; scale 0 to 100, 0 no effect, 100 complete control
Outline: as §1

corn (Zea mays) [3] = assay: Test B preemergence; settings: scale 0 to 100, 0 no effect, 100 complete control
Outline: as §1

rice (Oryza saliva) [4] = assay: Test B preemergence; settings: Preemergence, Rate 500 g/ha; scale 0 to 100, 0 no effect, 100 complete control
Outline: as §1

[5] = system: lambsquarters (Chenopodium album); assay: Test B preemergence; settings: scale 0 to 100, 0 no effect, 100 complete control
Outline: as §1

[6] = system: velvetleaf (Abutilon theophrasti); assay: Test B preemergence; settings: Preemergence, Rate 500 g/ha; scale 0 to 100, 0 no effect, 100 complete control
Outline: as §1

[7] = system: Surinam grass (Brachiaria decumbens); assay: Test B preemergence; settings: scale 0 to 100, 0 no effect, 100 complete control
Outline: as §1

[8] = system: barnyardgrass (Echinochloa crus-galli); assay: Test B preemergence; settings: scale 0 to 100, 0 no effect, 100 complete control
Outline: as §1

[9] = system: morning glory (Ipomoea hederacea); assay: Test B preemergence; settings: Preemergence, Rate 500 g/ha; scale 0 to 100, 0 no effect, 100 complete control
Outline: as §1

[10] = system: cocklebur (Xanthium strumarium); assay: Test B preemergence; settings: scale 0 to 100, 0 no effect, 100 complete control
Outline: as §1

[11] = system: giant foxtail (Setaria faberii); assay: Test B preemergence; settings: scale 0 to 100, 0 no effect, 100 complete control
Outline: as §1

[12] = system: crabgrass (Digitaria sanguinalis); assay: Test B postemergence; settings: 13 to 15 days
Outline: as §1

[13] = system: pigweed (Amaranthus retroflexus); assay: Test B postemergence; settings: 13 to 15 days
Outline: as §1

corn (Zea mays) [14] = assay: Test B postemergence; settings: 13 to 15 days
Outline: as §1

[15] = system: lambsquarters (Chenopodium album); assay: Test B postemergence; settings: 13 to 15 days
Outline: as §1

[16] = system: velvetleaf (Abutilon theophrasti); assay: Test B postemergence; settings: 13 to 15 days
Outline: as §1

[17] = system: Surinam grass (Brachiaria decumbens); assay: Test B postemergence; settings: 13 to 15 days
Outline: as §1

[18] = system: barnyardgrass (Echinochloa crus-galli); assay: Test B postemergence; settings: 13 to 15 days
Outline: as §1

[19] = system: wheat (Triticum aestivum); assay: Test B postemergence; settings: 13 to 15 days
Outline: as §1

[20] = system: blackgrass (Alopecurus myosuroides); assay: Test B postemergence; settings: 13 to 15 days
Outline: as §1

[21] = system: morning glory (Ipomoea hederacea); assay: Test B postemergence; settings: 13 to 15 days
Outline: as §1

[22] = system: cocklebur (Xanthium strumarium); assay: Test B postemergence; settings: 13 to 15 days
Outline: as §1

wild oat (Avena fatua) = assay: Test B postemergence; settings: 13 to 15 days
Outline: as §1

[23] = system: giant foxtail (Setaria faberii); assay: Test B postemergence; settings: 13 to 15 days
Outline: as §1

rice (Oryza saliva) [24] = assay: Test C flooded paddy test; settings: for Rice plant response rating: Flooded Paddy, scale 0 to 100, 0 no effect, 100 complete control; for Plant response rating, Rice / Plant response rating (scale 0 to 100), Rice: flooded paddy test; for Plant response rating, Rice: scale 0 to 100 (0 no effect, 100 complete control)
Outline: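 2-leaf-stage plants, flooded paddy; treated; greenhouse 12–14 days; compared with controls by eye; rated 0–100 (0 none, 100 complete control).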

[25] = Rate 125 g/ha, scale 0 (no effect) to 100 (complete control)
[26] = Rate 500 g/ha, scale 0 to 100, 0 is no effect, 100 is complete control

COc1cc(N2CCC(n3ccc(C(C)(C)C)n3)C2=O)ccc1C (centres unmarked) [Compound 42]
80: Plant response rating, Crabgrass [12, 26] | Plant response rating, Pigweed [13, 25] | Plant response rating, Velvetleaf [16, 26] | Rice plant response rating (rice (Oryza saliva) [24]; Rate 500 g/ha)
60: Plant response rating, Barnyardgrass [18, 25] | Plant response rating, Morningglory [21, 25] | Plant response rating, Cocklebur [22, 26]
90: Plant response rating, Velvetleaf [6] | Plant response rating, Surinam grass ([7]; preemergence, Rate 125 g/ha)
100: Plant response rating, Crabgrass ([1]; Preemergence, Rate 500 g/ha) | Plant response rating, Crabgrass ([1]; preemergence, Rate 125 g/ha) | Plant response rating, Pigweed [2] | Plant response rating, Rice (rice (Oryza saliva) [4]) | Plant response rating, Lambsquarters ([5]; Preemergence, Rate 500 g/ha) | Plant response rating, Lambsquarters ([5]; preemergence, Rate 125 g/ha) | Plant response rating, Surinam grass ([7]; Preemergence, Rate 500 g/ha) | Plant response rating, Barnyardgrass ([8]; Preemergence, Rate 500 g/ha) | Plant response rating, Barnyardgrass ([8]; preemergence, Rate 125 g/ha) | Plant response rating, Morningglory [9] | Plant response rating, Foxtail, Giant ([11]; Preemergence, Rate 500 g/ha) | Plant response rating, Foxtail, Giant ([11]; preemergence, Rate 125 g/ha) | Plant response rating, Pigweed [13, 26] | Plant response rating, Lambsquarters [15, 26] | Plant response rating, Barnyardgrass [18, 26] | Plant response rating, Morningglory [21, 26]
20: Plant response rating, Corn (corn (Zea mays) [3]; Preemergence, Rate 500 g/ha) | Plant response rating, Corn (corn (Zea mays) [3]; preemergence, Rate 125 g/ha) | Plant response rating, Rice (rice (Oryza saliva) [24]; Rate 62 g/ha)
70: Plant response rating, Cocklebur ([10]; Preemergence, Rate 500 g/ha) | Plant response rating, Lambsquarters [15, 25] | Plant response rating, Foxtail, Giant [23, 26] | Rice plant response rating (rice (Oryza saliva) [24]; Rate 250 g/ha)
0: Plant response rating, Cocklebur ([10]; preemergence, Rate 125 g/ha) | Plant response rating, Corn (corn (Zea mays) [14]; [25]) | Plant response rating, Surinam grass [17, 25] | Plant response rating, Surinam grass [17, 26] | Plant response rating, Wheat [19, 25] | Plant response rating, Wheat [19, 26] | Plant response rating, Blackgrass [20, 25] | Plant response rating, Wild Oat (wild oat (Avena fatua); [25]) | Plant response rating (scale 0 to 100), Rice (rice (Oryza saliva) [24]; Rate 16 g/ha, visually evaluated after 12 to 14 days, 0 = no effect, 100 = complete control) | Plant response rating (scale 0 to 100), Rice (rice (Oryza saliva) [24]; under head Rate 16 g/ha, (own rate not given), after 12 to 14 days)
40: Plant response rating, Corn (corn (Zea mays) [14]; [26]) | Plant response rating, Cocklebur [22, 25] | Plant response rating, Wild Oat (wild oat (Avena fatua); [26]) | Plant response rating, Rice (rice (Oryza saliva) [24]; Rate 125 g/ha)
50: Plant response rating, Crabgrass [12, 25] | Plant response rating, Velvetleaf [16, 25] | Plant response rating, Blackgrass [20, 26] | Plant response rating, Foxtail, Giant [23, 25]
